Results published in the NIST ThermoML archive (doi:10.1021/je200811n).
± gives the expanded uncertainty stated by the source.

Conditions: Hot wire method

F/C=C/C(F)(F)F [trans-1,3,3,3-tetrafluoropropene]
Conditions	thermal conductivity [W/m/K]
322.82 K, 587 kPa, Gas	0.01562 ± 0.00053
322.86 K, 21602 kPa, Liquid	0.08015 ± 0.00088
322.89 K, 858 kPa, Gas	0.01585 ± 0.00053
322.9 K, 15321 kPa, Liquid	0.07653 ± 0.00085
322.91 K, 884 kPa, Gas	0.01588 ± 0.00053
322.91 K, 5442 kPa, Liquid	0.06937 ± 0.00078
322.93 K, 431 kPa, Gas	0.01557 ± 0.00052
322.94 K, 5376 kPa, Liquid	0.06973 ± 0.00078
322.99 K, 96 kPa, Gas	0.01599 ± 0.00054
323 K, 710 kPa, Gas	0.01574 ± 0.00053
323.07 K, 301 kPa, Gas	0.01559 ± 0.00052
323.18 K, 586 kPa, Gas	0.01563 ± 0.00053
323.19 K, 193 kPa, Gas	0.01574 ± 0.00053
323.23 K, 856 kPa, Gas	0.01588 ± 0.00053
323.26 K, 882 kPa, Gas	0.01587 ± 0.00053
323.3 K, 430 kPa, Gas	0.01563 ± 0.00053
323.36 K, 707 kPa, Gas	0.01574 ± 0.00053
323.41 K, 96 kPa, Gas	0.0162 ± 0.00054
323.46 K, 301 kPa, Gas	0.01566 ± 0.00053
323.55 K, 585 kPa, Gas	0.01566 ± 0.00053
323.61 K, 193 kPa, Gas	0.01581 ± 0.00053
323.71 K, 429 kPa, Gas	0.01566 ± 0.00053
323.86 K, 96 kPa, Gas	0.01599 ± 0.00054
323.88 K, 301 kPa, Gas	0.01569 ± 0.00053
324.05 K, 193 kPa, Gas	0.01583 ± 0.00053
324.33 K, 96 kPa, Gas	0.01609 ± 0.00054
331.18 K, 96 kPa, Gas	0.01637 ± 0.00055
331.19 K, 198 kPa, Gas	0.01658 ± 0.00056
331.21 K, 298 kPa, Gas	0.01665 ± 0.00056
331.4 K, 96 kPa, Gas	0.0162 ± 0.0005
331.42 K, 198 kPa, Gas	0.01638 ± 0.00055
331.43 K, 298 kPa, Gas	0.01653 ± 0.00055
331.64 K, 96 kPa, Gas	0.01611 ± 0.00054
331.65 K, 197 kPa, Gas	0.01629 ± 0.00055
331.67 K, 298 kPa, Gas	0.0164 ± 0.0006
331.9 K, 96 kPa, Gas	0.01602 ± 0.00054
331.9 K, 298 kPa, Gas	0.01635 ± 0.00055
331.91 K, 197 kPa, Gas	0.01618 ± 0.00054
332.16 K, 298 kPa, Gas	0.01629 ± 0.00055
332.17 K, 198 kPa, Gas	0.01612 ± 0.00054
332.17 K, 1166 kPa, Gas	0.01695 ± 0.0003
332.18 K, 1084 kPa, Gas	0.01688 ± 0.0003
332.3 K, 442 kPa, Gas	0.01671 ± 0.00056
332.33 K, 813 kPa, Gas	0.0168 ± 0.00056
332.38 K, 585 kPa, Gas	0.01673 ± 0.00056
332.42 K, 298 kPa, Gas	0.01634 ± 0.00055
332.43 K, 600 kPa, Gas	0.0167 ± 0.00056
332.46 K, 434 kPa, Gas	0.01674 ± 0.00056
332.46 K, 1166 kPa, Gas	0.01705 ± 0.00031
332.47 K, 1082 kPa, Gas	0.01688 ± 0.0003
332.52 K, 198 kPa, Gas	0.0166 ± 0.00056
332.63 K, 813 kPa, Gas	0.01684 ± 0.00056
332.65 K, 442 kPa, Gas	0.01674 ± 0.00056
332.7 K, 96 kPa, Gas	0.01695 ± 0.00057
332.71 K, 584 kPa, Gas	0.0167 ± 0.00056
332.75 K, 598 kPa, Gas	0.01664 ± 0.00056
332.76 K, 1166 kPa, Gas	0.01708 ± 0.00031
332.79 K, 1079 kPa, Gas	0.01686 ± 0.0003
332.8 K, 434 kPa, Gas	0.01674 ± 0.00056
332.9 K, 198 kPa, Gas	0.01664 ± 0.00056
332.91 K, 871 kPa, Gas	0.01664 ± 0.00056
332.97 K, 813 kPa, Gas	0.01681 ± 0.00056
333.01 K, 444 kPa, Gas	0.01648 ± 0.00055
333.08 K, 1166 kPa, Gas	0.01705 ± 0.00031
333.11 K, 1077 kPa, Gas	0.0169 ± 0.0003
333.13 K, 96 kPa, Gas	0.017 ± 0.00057
333.26 K, 868 kPa, Gas	0.01661 ± 0.00056
333.31 K, 198 kPa, Gas	0.01672 ± 0.00056
333.42 K, 1165 kPa, Gas	0.01702 ± 0.0003
333.46 K, 1075 kPa, Gas	0.01692 ± 0.0003
333.56 K, 96 kPa, Gas	0.01706 ± 0.00057
333.6 K, 298 kPa, Gas	0.01659 ± 0.00056
333.74 K, 197 kPa, Gas	0.01673 ± 0.00056
333.82 K, 441 kPa, Gas	0.01653 ± 0.00055
333.98 K, 435 kPa, Gas	0.01662 ± 0.00056
334.02 K, 96 kPa, Gas	0.01704 ± 0.00057
334.02 K, 298 kPa, Gas	0.01661 ± 0.00056
334.19 K, 197 kPa, Gas	0.01672 ± 0.00056
334.51 K, 96 kPa, Gas	0.01712 ± 0.00057
340.58 K, 3036 kPa, Liquid	0.06257 ± 0.0007
340.6 K, 1565 kPa, Liquid	0.06077 ± 0.00069
340.63 K, 3034 kPa, Liquid	0.06242 ± 0.0007
340.65 K, 1563 kPa, Liquid	0.06068 ± 0.00068
340.7 K, 96 kPa, Gas	0.01742 ± 0.00058
340.73 K, 194 kPa, Gas	0.01765 ± 0.00059
340.73 K, 5177 kPa, Liquid	0.06477 ± 0.00073
340.75 K, 8139 kPa, Liquid	0.06735 ± 0.00075
340.75 K, 8199 kPa, Liquid	0.06725 ± 0.00075
340.78 K, 5176 kPa, Liquid	0.06447 ± 0.00072
340.8 K, 8202 kPa, Liquid	0.06713 ± 0.00075
340.82 K, 3032 kPa, Liquid	0.06247 ± 0.00071
340.86 K, 1561 kPa, Liquid	0.06064 ± 0.00069
340.88 K, 3031 kPa, Liquid	0.06222 ± 0.0007
340.92 K, 97 kPa, Gas	0.01718 ± 0.00057
340.92 K, 1560 kPa, Liquid	0.06043 ± 0.00068
340.94 K, 194 kPa, Gas	0.0174 ± 0.0006
341.03 K, 8138 kPa, Liquid	0.06739 ± 0.00075
341.04 K, 20095 kPa, Liquid	0.07528 ± 0.00083
341.06 K, 16393 kPa, Liquid	0.07294 ± 0.00081
341.07 K, 5175 kPa, Liquid	0.06447 ± 0.00073
341.08 K, 8204 kPa, Liquid	0.06709 ± 0.00076
341.09 K, 3029 kPa, Liquid	0.06217 ± 0.0007
341.09 K, 21968 kPa, Liquid	0.07668 ± 0.00085
341.1 K, 8133 kPa, Liquid	0.06713 ± 0.00075
341.1 K, 12136 kPa, Liquid	0.07037 ± 0.00078
341.1 K, 20086 kPa, Liquid	0.07523 ± 0.00083
341.12 K, 16392 kPa, Liquid	0.07302 ± 0.00081
341.13 K, 1563 kPa, Liquid	0.06043 ± 0.00068
341.14 K, 96 kPa, Gas	0.01698 ± 0.00057
341.15 K, 5174 kPa, Liquid	0.06431 ± 0.00072
341.15 K, 21974 kPa, Liquid	0.07662 ± 0.00085
341.16 K, 194 kPa, Gas	0.01722 ± 0.00058

Liquid
Conditions	thermal conductivity [W/m/K]
323.15 K	0.06606 ± 0.00047
333.15 K	0.06293 ± 0.00045
